Read-outs that look alike come from different tables or passages of the source.
Key:
[1] = Stain test on pellicle-coated plastic artificial molars (coffee/tea); conditions: for Stain Grade: 0-8 scale (0 no stain, 8 continuous dark brown stain); for promotion of stains: demonstrated by the stain test
Description: Plastic artificial molars were mounted in the caps of disposable plastic vials using dental cement. A thin, organic pellicle was developed on the teeth by exposure for about 17 hours to pooled human saliva which has been centrifuged for 2 minutes at 500X gravity to remove food and similar debris. The coated teeth were serially exposed for 5 minutes to a solution of the test material, a distilled water rinse, for 5 minutes to a solution of instant coffee and tea (20 grams of commercial instant coffee and 2 grams of commercial instant tea in 1 liter of distilled water), a distilled water rinse, the test solution for 5 minutes, a distilled water rinse, the coffee/tea solution for 5 minutes, and a final distilled water rinse. The teeth were then graded for degree of staining on a 0-8 scale (where 0 was no stain and 8 was continuous dark brown stain) by comparison with a photographic standard.

E. coli [2] = experiment: Minimum Bactericidal Concentration test; assay type: cell-based; conditions: 10-minute contact at 37°C
Description: (§1) The data are from standard tests for measuring Minimum Bactericidal Concentrations (using a 10-minute contact with the test agent at 37°C; representing at least 3 log unit reduction in viable cell count).

S. aureus = experiment: Minimum Bactericidal Concentration test; assay type: cell-based; conditions: 10-minute contact at 37°C
Description: as §1

E. coli [3] = assay type: cell-based; conditions: for Log Survivors/ml: approximately 10^7 E. coli/ml, 10 min. at 37°C; for effectiveness as component of the antimicrobial compositions: other polyvalent metals in place of the rare earth, tested in the foregoing manner
Staphylococcus = conditions: cited from earlier work
molds = conditions: cited from earlier work
[4] = Water solubility / precipitation from solution; assay type: physicochemical; conditions: in combination with a rare earth
Source text: Moreover, the compounds herein or their rare earth metal components precipitate from solution at pH's above about 8. See: Moeller and Kremers, Chem. Rev. 37:114 (1945). Moreover, highly acid (below about pH 4) solutions of the surfactants herein have antimicrobial properties in their own right. Of course, compositions intended for oral use should have a pH above about 4 to avoid damage to dental enamel. With certain species of microorganisms, especially with Pityrosporum ovale which is the causative microorganism for dandruff, the compositions herein are optimally active in the pH range of 4.0-4.5.
The present invention specifically encompasses the more water-soluble, antimicrobially-active rare earth/alkyl benzene sulfonate compositions.

[5] = Antimicrobial activity of rare earth/surfactant combinations; assay type: cell-based; conditions: in combination with a rare earth
Description: as §1

Bacillus subtilis = experiment: Minimum Bactericidal Concentration of LaLAS; assay type: cell-based; conditions: Gram-positive
Description: as §1

E. coli ATCC 11775 = experiment: Minimum Bactericidal Concentration of LaLAS; assay type: cell-based; conditions: Gram-negative
Description: as §1

[6] = tested on: Kleb. pneumoniae ATCC 4352; experiment: Minimum Bactericidal Concentration of LaLAS; assay type: cell-based; conditions: Gram-negative
Description: as §1

[7] = tested on: Micrococcus luteus ATCC 4698; experiment: Minimum Bactericidal Concentration of LaLAS; assay type: cell-based; conditions: Gram-positive
Description: as §1

Proteus vulgaris = experiment: Minimum Bactericidal Concentration of LaLAS; assay type: cell-based; conditions: Gram-negative
Description: as §1

[8] = tested on: Ps. aeruginosa ATCC 15442; experiment: Minimum Bactericidal Concentration of LaLAS; assay type: cell-based; conditions: Gram-negative
Description: as §1

Salmonella typhimurium = experiment: Minimum Bactericidal Concentration of LaLAS; assay type: cell-based; conditions: Gram-negative
Description: as §1

Staph. aureus ATCC 6538 = experiment: Minimum Bactericidal Concentration of LaLAS; assay type: cell-based; conditions: Gram-positive
Description: as §1

[9] = tested on: Staph. epidermidis ATCC 14990; experiment: Minimum Bactericidal Concentration of LaLAS; assay type: cell-based; conditions: Gram-positive
Description: as §1

Strep. faecalis = experiment: Minimum Bactericidal Concentration of LaLAS; assay type: cell-based; conditions: Gram-positive
Description: as §1

dental plaque = experiment: In vitro growth of dental plaque on extracted human teeth in growth chambers; assay type: cell-based; conditions: plaque-inhibiting solutions for one minute each morning and afternoon, four days; compared with water-treated controls
Source text: The efficacy of the antimicrobial composition LaLAS was compared with the known anti-plaque agent chlorhexidine digluconate for the prevention of dental plaque, as follows: • Lanthanum 4-(1'-methylnonyl)benzenesulfonate (LaLAS) was used in this test to reduce the in vitro growth of dental plaque on teeth. This was done using a system of glass growth chambers containing clean, extracted, sound human teeth mounted in stainless steel brackets. After sterilization in an autoclave, the growth chambers were inoculated with homogenized human plaque scrapings and serially treated with Trypticase® soy broth, sucrose, artificial saliva, and solutions of plaque-inhibiting materials for four days: The plaque-inhibiting solutions were introduced for one minute each morning and afternoon. After this treatment, the teeth were withdrawn from the growth chambers, stained with an alcoholic solution of basic fuchsin to disclose any plaque that had formed and, after randomization, graded for percent plaque coverage by three trained judges. Percent plaque reduction was calculated by comparison with water-treated controls. [formula]

[10] = 3 molecular equivalents of Na surfactant to 1 molecular equivalent of LaCl3
[11] = Rare Earth Cation 0.01 mM + 2-C10LAS 0.03 mM
[12] = Rare Earth Cation 0.05 mM + 2-C10LAS 0.15 mM
[13] = Rare Earth Cation 0.1 mM + 2-C10LAS 0.3 mM
[14] = Rare Earth Cation 0.1 mM alone, 2-C10LAS 0 mM
[15] = inorganic lanthanum salt alone, at least 3 log unit reduction in viable cell count

CCCCCCCCCCCCCCCC[n+]1ccccc1 [Cetylpyridinium chloride]
Stain Grade ([1]; 2000 ppm test solution): 2.7

[H]/N=C(\N/C(=N/[H])NCCCCCCNC(=N)NC(=N)Nc1ccc(Cl)cc1)Nc1ccc(Cl)cc1 [Chlorhexidine]
Stain Grade ([1]; 2000 ppm test solution): 3.2

CCCCCCCCC(C)c1ccc(S(=O)(=O)O)cc1 (stereo not shown) [Compound 2-C10LAS, 4-(l'-methylnonyl)benzenesulfonate]
Minimum Bactericidal Concentration (ppm) E. coli Na salt + LaCl3 (E. coli [2]; [10]): 32 ppm
MBC (E. coli [2]; Escherichia coli, 10 min, surfactant as Na salt alone, read-out: Minimum Bactericidal Concentration (ppm) E. coli as Na salt): > 2000 µg/mL
Minimum Bactericidal Concentration (ppm) S. aureus Na salt + LaCl3 (S. aureus; [10]): 32 ppm
MBC (S. aureus; Staphylococcus aureus, 10 min, surfactant as Na salt alone, read-out: Minimum Bactericidal Concentration (ppm) S. aureus as Na salt): 2000 µg/mL
Log Survivors/ml (E. coli [3]; Rare Earth Cation 0 mM, 2-C10LAS 0.3 mM alone): 6

[Cl][Dy]([Cl])[Cl] [DyCl3]
Log Survivors/ml (E. coli [3]; [11]): 0
Log Survivors/ml (E. coli [3]; [12]): 0
Log Survivors/ml (E. coli [3]; [13]): 0
Log Survivors/ml (E. coli [3]; [14]): 3

[Cl][La]([Cl])[Cl] [LaCl3]
Log Survivors/ml (E. coli [3]; [11]): 0
Log Survivors/ml (E. coli [3]; [12]): 0
Log Survivors/ml (E. coli [3]; [13]): 0
Log Survivors/ml (E. coli [3]; [14]): 5

O.O.O.O.O.O.[Cl-].[Cl-].[Cl-].[La+3] [LaCl3·6H2O, lanthanum chloride hexahydrate]
Minimum Bactericidal Concentration (E. coli [2]; [15]): >3500 ppm
Minimum Bactericidal Concentration (S. aureus; [15]): >3500 ppm

[Cl][Nd]([Cl])[Cl] [NdCl3]
Log Survivors/ml (E. coli [3]; [11]): 1
Log Survivors/ml (E. coli [3]; [12]): 0
Log Survivors/ml (E. coli [3]; [13]): 0
Log Survivors/ml (E. coli [3]; [14]): 3

[Cl][Pr]([Cl])[Cl] [PrCl3]
Log Survivors/ml (E. coli [3]; [11]): 0
Log Survivors/ml (E. coli [3]; [12]): 0
Log Survivors/ml (E. coli [3]; [13]): 0
Log Survivors/ml (E. coli [3]; [14]): 3

[Cl][Yb]([Cl])[Cl] [YbCl3]
Log Survivors/ml (E. coli [3]; [11]): 0
Log Survivors/ml (E. coli [3]; [12]): 0
Log Survivors/ml (E. coli [3]; [13]): 0
Log Survivors/ml (E. coli [3]; [14]): 2

[Ca] [calcium]
effectiveness as component of the antimicrobial compositions (E. coli [3]): ineffective

O=[N+]([O-])[O-].O=[N+]([O-])[O-].O=[N+]([O-])[O-].[Ce+3] [cerium nitrate]
concentration that inhibits Staphylococcus (Staphylococcus): 1000 ppm
concentration that inhibits molds (molds): 1000 ppm

[H]/N=C(\N/C(=N/[H])NCCCCCCNC(=N)NC(=N)Nc1ccc(Cl)cc1)Nc1ccc(Cl)cc1 [chlorhexidine digluconate]
promotion of stains [1]: undesirably promotes stains

[Fe] [iron]
effectiveness as component of the antimicrobial compositions (E. coli [3]): ineffective

[Mg] [magnesium]
effectiveness as component of the antimicrobial compositions (E. coli [3]): ineffective

CCCCCCCCCCCCc1ccc(S(=O)(=O)O)cc1 [n-C12LAS]
water solubility [4]: rather water-insoluble
antimicrobial activity [5]: rather poor

aluminum
effectiveness as component of the antimicrobial compositions (E. coli [3]): ineffective

lanthanum 4-(l'-methylnonyl)benzenesulfonate [LaLAS]
Minimum Bactericidal Conc. of LaLAS (Bacillus subtilis): 500 ppm
Minimum Bactericidal Conc. of LaLAS (E. coli ATCC 11775): 32 ppm
Minimum Bactericidal Conc. of LaLAS [6]: 125 ppm
Minimum Bactericidal Conc. of LaLAS [7]: 125 ppm
Minimum Bactericidal Conc. of LaLAS (Proteus vulgaris): 32 ppm
Minimum Bactericidal Conc. of LaLAS [8]: 16 ppm
Minimum Bactericidal Conc. of LaLAS (Salmonella typhimurium): 125 ppm
Minimum Bactericidal Conc. of LaLAS (Staph. aureus ATCC 6538): 32 ppm
Minimum Bactericidal Conc. of LaLAS [9]: 32 ppm
Minimum Bactericidal Conc. of LaLAS (Strep. faecalis): 32 ppm
anti-plaque efficacy (dental plaque): equivalent to chlorhexidine digluconate
Stain Grade ([1]; 2000 ppm in 20% EtOH): 0
Stain Grade ([1]; 2000 ppm test solution): 0.1
promotion of stains [1]: does not

Reference: patent EP0018019A1, “Antimicrobial water-soluble compound which contains a rare earth metal cation, its application in oral compositions and method for controlling microorganisms therewith” (priority 1979, dated 1980)
